Here are results for 15 molecules from patent EP1203770A1 (priority 1992, dated 1994).

Read-outs that look alike come from different tables or passages of the source.

The target of the test is T1, HIV-1 protease (Human immunodeficiency virus type 1 group M subtype B, UniProt P04585).
T1 construct: The protease (or proteinase), consisting of only 99 amino acids, is among the smallest enzymes known
The test can be described thus: In vitro HIV protease inhibitory assay (HIV Protease FITC Assay). The format is biochemical. Conditions: for inhibition at 0.123 µM / inhibition at 0.37 µM / inhibition at 1.1 µM / inhibition at 3.3 µM / inhibition at 10 µM / inhibition at 30 µM: read-out: HIV-1 Protease % Inhib; for Ki: read-out: HIV-1 FITC Ki. The procedure, abridged: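 Percent inhibition was read as fluorescence after avidin-bead capture and filtration separated FITC cleavage product from biotinylated substrate. Enzyme and substrate reacted 1 h, RT, dark, at pH 5.5 (0.1 M sodium acetate, 1.0 M NaCl, 0.05% NP-40).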

Regarding `CCC(Cc1ccccc1)c1cc(O)c(C2(c3ccccc3)CCC2)c(=O)o1` (stereo not drawn) [Example 124, 4-Hydroxy-3-(1-phenylcyclobutyl)-6-[1-(phenylmethyl)propyl]-2H-pyran-2-one], the inhibition at 0.123 µM (HIV-1 Dose 0.123 uM) is less than 10%. Also, where the note is “HIV-1 Dose 0.370 uM”, the inhibition at 0.37 µM was less than 10%. Further, for the setting “HIV-1 Dose 1.100 uM”, the inhibition at 1.1 µM was less than 10%. Also, the inhibition at 3.3 µM (HIV-1 Dose 3.300 uM) is 27.5%. In addition, under “HIV-1 Dose 10.000 uM”, the inhibition at 10 µM came out at 53.4%. Besides, the inhibition at 30 µM (HIV-1 Dose 30.000 uM) is 64.8%.

As for `C=CC(C1=C(O)CC2(CCCCCCC2)OC1=O)c1ccccc1` (stereo not drawn) [Example 125, 4-Hydroxy-3-(1-phenyl-2-propenyl)-1-oxaspiro[5.7]tridec-3-en-2-one], for the setting “HIV-1 Dose 0.123 uM”, the inhibition at 0.123 µM was less than 10%. Moreover, the inhibition at 0.37 µM (HIV-1 Dose 0.370 uM) is less than 10%. The inhibition at 1.1 µM (HIV-1 Dose 1.100 uM) amounted to 15.4%. The inhibition at 3.3 µM (HIV-1 Dose 3.300 uM) stood at 45.7%. In addition, under “HIV-1 Dose 10.000 uM”, the inhibition at 10 µM amounted to 71%. For the same molecule, the inhibition at 30 µM (HIV-1 Dose 30.000 uM) stood at 89.7%.

In the case of `CCC(C1=C(O)CC2(CCCCCCC2)OC1=O)c1ccccc1` (stereo not drawn) [Example 126, 4-Hydroxy-3-(1-phenylpropyl)-1-oxaspiro[5.7]tridec-3-en-2-one], the inhibition at 0.123 µM is less than 10%, the inhibition at 0.37 µM was less than 10%, the inhibition at 1.1 µM amounted to 13.2% and the inhibition at 3.3 µM is 42.9%. The inhibition at 10 µM turned out to be 66.8% and the inhibition at 30 µM came to 81%.

Regarding `C=CC(C1=C(O)CC2(CCCCCC2)OC1=O)c1ccccc1` (stereo not drawn) [Example 127, 4-Hydroxy-3-(1-phenylallyl)-1-oxa-spiro[5.6]-dodec-3-en-2-one], the inhibition at 0.123 µM (HIV-1 Dose 0.123 uM) is less than 10%. Also, the inhibition at 0.37 µM (HIV-1 Dose 0.370 uM) came to 14.4%. For the same molecule, where the note is “HIV-1 Dose 1.100 uM”, the inhibition at 1.1 µM came to 38.4%. In addition, the inhibition at 3.3 µM (HIV-1 Dose 3.300 uM) stood at 65.6%. Further, the inhibition at 10 µM (HIV-1 Dose 10.000 uM) amounted to 98.9%. Further, the inhibition at 30 µM (HIV-1 Dose 30.000 uM) was found to be 102%.

As to `C=CC(C1=C(O)CC2(CCCC2)OC1=O)c1ccccc1` (stereo not drawn) [Example 128, 4-Hydroxy-3-(1-phenylallyl)-1-oxa-spiro[5.4]-dec-3-en-2-one], the inhibition at 0.123 µM (HIV-1 Dose 0.123 uM) is less than 10%. Also, the inhibition at 0.37 µM (HIV-1 Dose 0.370 uM) is less than 10%. Also, where the note is “HIV-1 Dose 1.100 uM”, the inhibition at 1.1 µM amounted to 18.5%. For the setting “HIV-1 Dose 3.300 uM”, the inhibition at 3.3 µM amounted to 46.8%. Further, the inhibition at 10 µM (HIV-1 Dose 10.000 uM) was 79.8%. Besides, the inhibition at 30 µM (HIV-1 Dose 30.000 uM) stood at 95.7%.

As to `C=CC(C1=C(O)CC2(CCCCC2Cc2ccccc2)OC1=O)c1ccccc1` (stereo not drawn) [Example 129, 7-Benzyl-4-hydroxy-3-(1-phenylallyl)-1-oxa-spire[5.5]undec-3-en-2-one], the inhibition at 0.123 µM was less than 10%, the inhibition at 0.37 µM is less than 10%, the inhibition at 1.1 µM was 43.5% and the inhibition at 3.3 µM came out at 67.1%. Moreover, the inhibition at 10 µM was determined as 80.7% and the inhibition at 30 µM came out at 83.4%.

For `CCC(C1=C(O)CC2(CCCC2)OC1=O)c1ccccc1` (stereo not drawn) [Example 130, 4-Hydroxy-3-(1-phenylpropyl)-1-oxa-spiro[5.4]-dec-3-en-2-one], the inhibition at 0.123 µM (HIV-1 Dose 0.123 uM) is less than 10%. For the setting “HIV-1 Dose 0.370 uM”, the inhibition at 0.37 µM was less than 10%. Besides, the inhibition at 1.1 µM (HIV-1 Dose 1.100 uM) is less than 10%. The inhibition at 3.3 µM (HIV-1 Dose 3.300 uM) is less than 10%. Further, the inhibition at 10 µM (HIV-1 Dose 10.000 uM) is less than 10%. The inhibition at 30 µM (HIV-1 Dose 30.000 uM) was determined as 13.1%.

As to `CCC(CCN1CCOCC1)c1cc(O)c(C(c2ccccc2)C2CC2)c(=O)o1` (stereo not drawn) [Example 131, 3-(Cyclopropylphenylmethyl)-6-[1-ethyl-3-(4-morpholinyl)propyl]-4-hydroxy-2H-pyran-2-one], for the setting “HIV-1 Dose 0.123 uM”, the inhibition at 0.123 µM is less than 10%. Moreover, the inhibition at 0.37 µM (HIV-1 Dose 0.370 uM) is less than 10%. Further, the inhibition at 1.1 µM (HIV-1 Dose 1.100 uM) is less than 10%. Besides, under “HIV-1 Dose 3.300 uM”, the inhibition at 3.3 µM is less than 10%. Moreover, for the setting “HIV-1 Dose 10.000 uM”, the inhibition at 10 µM was found to be 13.2%. Besides, the inhibition at 30 µM (HIV-1 Dose 30.000 uM) is 45.9%.

For `CCC(CC(=O)OCc1ccccc1)c1cc(O)c(C(c2ccccc2)C2CC2)c(=O)o1` (stereo not drawn) [Example 132, 3-(Cyclopropylphenylmethyl)-β-ethyl-4-hydroxy-2-oxo-, phenylmethyl ester 2H-pyran-6-propanoic acid], the inhibition at 0.123 µM (HIV-1 Dose 0.123 uM) was less than 10%. Also, the inhibition at 0.37 µM (HIV-1 Dose 0.370 uM) is less than 10%. Moreover, the inhibition at 1.1 µM (HIV-1 Dose 1.100 uM) was found to be 29.1%. The inhibition at 3.3 µM (HIV-1 Dose 3.300 uM) amounted to 70.2%. Further, the inhibition at 10 µM (HIV-1 Dose 10.000 uM) was found to be 87.6%. The inhibition at 30 µM (HIV-1 Dose 30.000 uM) is 110%.

In the case of `CC(C)C(Cc1ccccc1)c1cc(O)c(C(c2ccccc2)C2CC2)c(=O)o1` (stereo not drawn) [Example 133, 3-(Cyclopropylphenylmethyl)4-hydroxy-6-[2-methyl-1-(phenylmethyl)propyl]-2H-pyran-2-one], the Ki (usually the equilibrium dissociation constant of an inhibitor or competing ligand from its target) is 0.04 µM. The inhibition at 0.123 µM (HIV-1 Dose 0.123 uM) amounted to 20.6%. Also, the inhibition at 0.37 µM (HIV-1 Dose 0.370 uM) was 49.6%. In addition, the inhibition at 1.1 µM (HIV-1 Dose 1.100 uM) came to 74.3%. The inhibition at 3.3 µM (HIV-1 Dose 3.300 uM) stood at 95.9%. The inhibition at 10 µM (HIV-1 Dose 10.000 uM) was determined as 110%. The inhibition at 30 µM (HIV-1 Dose 30.000 uM) was 102%.

With `CC(C)C(CC1CCCOC1)c1cc(O)c(C(c2ccccc2)C2CC2)c(=O)o1` (stereo not drawn) [Example 134, 3-(Cyclopropylphenylmethyl)-4-hydroxy-6-[2-methyl-1-[(tetrahydro-2H-pyran-3-yl)methyl]propyl]-2H-pyran-2-one], the Ki was 0.024 µM. Further, for the setting “HIV-1 Dose 0.123 uM”, the inhibition at 0.123 µM is 21.1%. For the same molecule, the inhibition at 0.37 µM (HIV-1 Dose 0.370 uM) came to 57.5%. In addition, the inhibition at 1.1 µM (HIV-1 Dose 1.100 uM) is 83.1%. Further, the inhibition at 3.3 µM (HIV-1 Dose 3.300 uM) worked out at 99.7%. Further, the inhibition at 10 µM (HIV-1 Dose 10.000 uM) was 111%. Also, the inhibition at 30 µM (HIV-1 Dose 30.000 uM) was 106%.

Regarding `CCC(CCC(F)(F)F)c1cc(O)c(C(c2ccccc2)C2CC2)c(=O)o1` (stereo not drawn) [Example 136, 3-(Cyclopropylphenylmethyl)-6-(1-ethyl-4,4,4-trifluorobutyl)-4-hydroxy-2H-pyran-2-one], the Ki came to 0.052 µM. Moreover, the inhibition at 0.123 µM (HIV-1 Dose 0.123 uM) is less than 10%. The inhibition at 0.37 µM (HIV-1 Dose 0.370 uM) was 24.5%. For the setting “HIV-1 Dose 1.100 uM”, the inhibition at 1.1 µM came out at 62.4%. Moreover, the inhibition at 3.3 µM (HIV-1 Dose 3.300 uM) is 91.3%. The inhibition at 10 µM (HIV-1 Dose 10.000 uM) amounted to 99.1%. Moreover, under “HIV-1 Dose 30.000 uM”, the inhibition at 30 µM was 99.7%.

For the molecule `CCC(CC1CCCN(S(=O)(=O)c2ccc(C)cc2)C1)c1cc(O)c(C(c2ccccc2)C2CC2)c(=O)o1` (stereo not drawn) [Example 137, 3-[2-[3-(Cyclopropylphenylmethyl)-4-hydroxy-2-oxo-2H-pyran-6-yl]butyl]-1-[(4-methylphenyl)sulfonyl]-piperidine], under “HIV-1 Dose 0.123 uM”, the inhibition at 0.123 µM is less than 10%. For the same molecule, the inhibition at 0.37 µM (HIV-1 Dose 0.370 uM) is less than 10%. For the same molecule, the inhibition at 1.1 µM (HIV-1 Dose 1.100 uM) worked out at 23%. The inhibition at 3.3 µM (HIV-1 Dose 3.300 uM) was 57.2%. In addition, for the setting “HIV-1 Dose 10.000 uM”, the inhibition at 10 µM worked out at 80.2%. Also, the inhibition at 30 µM (HIV-1 Dose 30.000 uM) is 79.7%.

With `CCC(CC1CCCN1S(=O)(=O)c1ccc(C)cc1)c1cc(O)c(C(c2ccccc2)C2CC2)c(=O)o1` (stereo not drawn) [Example 138, 2-[2-[3-(Cyclopropylphenylmethyl)-4-hydroxy-2-oxo-2H-pyran-6-yl]butyl]-1-[(4-methylphenyl)sulfonyl]-pyrrolidine], where the note is “HIV-1 Dose 0.123 uM”, the inhibition at 0.123 µM was less than 10%. In addition, under “HIV-1 Dose 0.370 uM”, the inhibition at 0.37 µM was less than 10%. Besides, the inhibition at 1.1 µM (HIV-1 Dose 1.100 uM) is 24.8%. In addition, the inhibition at 3.3 µM (HIV-1 Dose 3.300 uM) amounted to 63.9%. Further, under “HIV-1 Dose 10.000 uM”, the inhibition at 10 µM amounted to 83.3%. Under “HIV-1 Dose 30.000 uM”, the inhibition at 30 µM turned out to be 81.1%.

For the molecule `O=c1oc(CCC(F)(F)F)cc(O)c1C(c1ccccc1)C1CC1` (stereo not drawn) [Example 139, 3-(Cyclopropylphenylmethyl)-4-hydroxy-6-(3,3,3-trifluoropropyl)-2H-pyran-2-one], the inhibition at 0.123 µM (HIV-1 Dose 0.123 uM) is less than 10%. Moreover, for the setting “HIV-1 Dose 0.370 uM”, the inhibition at 0.37 µM is less than 10%. Moreover, the inhibition at 1.1 µM (HIV-1 Dose 1.100 uM) was less than 10%. For the same molecule, the inhibition at 3.3 µM (HIV-1 Dose 3.300 uM) is 27.9%. In addition, the inhibition at 10 µM (HIV-1 Dose 10.000 uM) is 58%. For the same molecule, the inhibition at 30 µM (HIV-1 Dose 30.000 uM) worked out at 67.1%.
